Values of other authors, collected in US10647856B2, “Mold resistant formable cork” (THE BOEING COMPANY, priority 2016, dated 2020).
Converted amounts (≈) assume the structure as drawn.

**Q.** Which water solubility does the source give for O=[N+]([O-])c1ccc(O)cc1 [para-nitrophenol] here?
**A.** 16 mg/mL (≈ 115 mM)
